Assay results reported in publication PMC7578299, “The antiviral effects of baloxavir marboxil against influenza A virus infection in ferrets” (Influenza and Other Respiratory Viruses, 2020).

Tests used:
Type in all cases: in vitro ADME
[1] = Metabolic stability in liver microsomes, monkey; settings: for % Residual in liver microsome: monkey, 2 μmol/L, pH 7.4
Protocol: (§1) Liver microsomes were prepared from ferrets, rats, dogs, and monkeys, as previously described. ^28 Human liver microsomes were obtained from Sekisui‐XenoTech, LLC and pooled (n = 15). Metabolic stability of the compounds in liver microsomes was tested in duplicate. Oseltamivir and cefcapene pivoxil were used as reference compounds. Liver microsomes at 0.5 mg/mL concentration (final volume of 0.2 mL) were incubated in Tris‐HCl buffer (pH 7.4), containing 50 mmol/L Tris‐HCl, 150 mmol/L KCl, 10 mmol/L MgCl2. The hydrolysis reaction was initiated by applying the test compound solution (final concentration 2 μmol/L). After incubation for 10, 20, and 30 minutes at 37°C, the hydrolysis was terminated by the addition of twofold volume of ice‐cold acetonitrile/methanol (1:1, v/v). Samples were centrifuged at 3000 rpm for 10 minutes prior to LC‐MS/MS analysis of compounds in the supernatants.

[2] = Metabolic stability in liver microsomes, human; settings: 2 μmol/L, pH 7.4
Protocol: as §1

[3] = Metabolic stability in liver microsomes, ferret; settings: for % Residual in liver microsome: ferret, 2 μmol/L, pH 7.4
Protocol: as §1

[4] = Metabolic stability in liver microsomes, rat; settings: for % Residual in liver microsome: 2 μmol/L, pH 7.4
Protocol: as §1

[5] = Metabolic stability test, control (microsome free); settings: 2 μmol/L, pH 7.4
Protocol: as §1

[6] = Metabolic stability in liver microsomes, dog; settings: for % Residual in liver microsome: 2 μmol/L, pH 7.4
Protocol: as §1

CC/C=C(\C(=O)N[C@@H]1C(=O)N2C(C(=O)OCOC(=O)C(C)(C)C)=C(COC(N)=O)CS[C@H]12)c1csc(N)n1.Cl [Cefcapene pivoxil, cefcapene pivoxil hydrochloride]
% Residual in liver microsome Individual value [1]: 0.0%

CCOC(=O)C1=C[C@@H](OC(CC)CC)[C@H](NC(C)=O)[C@@H](N)C1 [OSP, oseltamivir phosphate]
% Residual in liver microsome ([2]; 10 min): 89.8% | % Residual in liver microsome ([2]; 20 min): 64.8% | % Residual in liver microsome ([2]; 30 min): 49.7% | % Residual in liver microsome ([3]; 10 min): 106.5% | % Residual in liver microsome ([3]; 20 min): 107.2% | % Residual in liver microsome ([3]; 30 min): 109.0% | stability in liver microsomes (in words) ([3]; microsomes): stable | % Residual in liver microsome ([4]; 10 min): 110.8% | % Residual in liver microsome ([4]; 20 min): 119.2% | % Residual in liver microsome ([4]; 30 min): 117.3% | stability in liver microsomes (in words) ([4]; microsomes): stable | % Residual in liver microsome ([1]; 10 min): 73.6% | % Residual in liver microsome ([1]; 20 min): 59.1% | % Residual in liver microsome ([1]; 30 min): 45.2% | % Residual, Control (Microsome free) ([5]; 10 min): 106.4% | % Residual, Control (Microsome free) ([5]; 20 min): 105.4% | % Residual, Control (Microsome free) ([5]; 30 min): 111.3% | % Residual in liver microsome ([6]; 10 min): 115.8% | % Residual in liver microsome ([6]; 20 min): 109.6% | % Residual in liver microsome ([6]; 30 min): 110.5% | stability in liver microsomes (in words) ([6]; microsomes): stable
